Laboratory results from US11891634B2, “PDE5A destabilizing domains” (The Board of Trustees of the Leland Stanford Junior …, priority 2017, dated 2024).

Tests used:
[1] = tested on: NIH3T3 cells expressing AcGFP-PDE5A fusions; assay: FACS analysis of C-terminal PDE5A mutants (AcGFP-PDE5A fusions), Sildenafil vs vehicle; format: cell-based, mouse; conditions: Table 2, 24 hours; for Mean Fluorescence intensity: NIH3T3; for Stabilization ratio: fold change in GFP intensity, Sildenafil 10 μM vs vehicle alone
Protocol: (§1) The NIH3T3 cell line was cultured in DMEM supplemented with 10% heat-inactivated donor bovine serum (Invitrogen), 2 mM glutamine, 100 U/ml penicillin and 100 μg/ml streptomycin.
(§2) The ΦNX ecotropic packaging cell line was transfected using standard Lipofectamine 2000 protocols. Viral supernatants were harvested 48 hours, post transfection, filtered and concentrated 10-fold using Amicon Ultra centrifugal filter device with a 100kDa cutoff. NIH 3T3 cells were incubated with concentrated retroviral supernatants supplemented with 4 μg/ml polybrene for 4 hours at 37° C. Cells were washed once with PBS and cultured in growth media for 24-36 hours to allow for viral integration.
(§3) The transduced NIH3T3 cells were subjected to analysis using fluorescence-activated cell sorting (FACS) to screen the libraries of PDE5A mutants. 24 hours prior to analysis, transduced NIH3T3 cells were plated at 1×10^5 cells per well of a 12-well plate. Cells were removed from the plate using PBS and 2 mM EDTA, washed once with PBS, and resuspended in 200 μL, PBS. FACS analysis was performed on instruments at the Stanford Shared FACS Facility with 10,000 events represented.
(§4) To identify destabilizing domains that are responsive to the PDE5A ligand, Sildenafil, a cell-based screening assay was employed in which the fluorescence of green fluorescent protein derived from Aequorea coerulescens (AcGFP) served as an indicator of PDE5A stability. A library based on the PDE5A catalytic domain sequences was generated using error prone PCR and then cloned in-frame in front of AcGFP. A Moloney murine leukemia retroviral expression was used to stably integrate this library of PDE5A-AcGFP fusions into NIH-3T3 fibroblasts, and the transduced cells were subjected to three rounds of sorting using flow cytometry. In the first round, cells were treated with 10 μM of PDE5A ligand, Sildenafil for 16-24 before analysis. Fluorescent cells were collected and further cultured in the absence of ligand for 60 hours.
(§5) A library of AcGFP-PDE5A fusions i.e., C-terminal PDE5A mutants was screened using the cell-based screening assay described previously to identify C-terminal destabilizing domains. […] Identified candidates were subjected to further characterization by FACS. Cells were split into two treatment groups and incubated with either Sildenafil (10 μM) or vehicle alone for 24 hours. Cells that were mock transduced or transduced with the wild-type PDE5A construct were also included in the analysis. The stabilization ratio was calculated as the fold change in GFP intensity of the AcGFP-PDE5A construct in Sildenafil treated sample compared to vehicle alone treated sample. The results are presented in Table 2 where the C terminal PDE5A mutants are denoted as PDE5AC.
Residue D764 was identified as a mutational hotspot from sequence analysis. PDE5AC (#41) was engineered with either D764N or D764G mutation via site-directed mutagenesis. PDE5AC (#41) +D764N comprises the amino acid sequence of SEQ ID NO. 53 (encoded by SEQ ID NO. 54) and PDE5AC (#41) +D764G comprises the amino acid sequence of SEQ ID NO. 55 (encoded by SEQ ID NO. 56). AcGFP-PDE5A variants were evaluated for Sildenafil dependent stabilization via FACS as described previously. Results from FACS analysis are presented in Table 4 where the C terminal PDE5A mutants are denoted as PDE5AC. The stabilization ratio was calculated as the fold change in GFP intensity of the AcGFP-PDE5A construct in Sildenafil treated sample compared to vehicle alone treated sample.
Extended versions of human PDE5A that included residues in addition to catalytic domain (residues 535-860 of SEQ ID NO. 1) with Q589R polymorphism (SEQ ID NO. 11) were evaluated for use as C-terminal destabilizing domains. Three extended PDE5A sequences were tested that consisted of residues 535-875 of SEQ ID NO. 1 with Q589R polymorphism (SEQ ID NO. 13); residues 466-875 of SEQ ID NO. 1 with Q589R polymorphism (SEQ ID NO. 15); or residues 420-875 of SEQ ID NO. […]

[2] = target: T1, HCT 116 cells transduced with the PDE5A DD derived GFP constructs (Homo sapiens, UniProt O76074, K633E/K795E/K852E/Q589R/T712S); assay: Response to Tadalafil, GFP expression by FACS in HCT116; format: cell-based; conditions: 48 hrs, HCT116
T1 construct: Mutations were created in PDE5A (535-860) catalytic domain using site directed mutagenesis; expressed in transfected cells; host or cells: HCT116 (lentiviral transduction, pELNS vector, sorted on mCherry)
Outline: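 HCT116 cells stably transduced (mCherry-sorted) with lentiviral PDE5A DD–AcGFP constructs, exposed to DMSO or Tadalafil 0.01–100 μM for 48 hrs. GFP mean fluorescence by FACS; stabilization ratio = ligand vs no-ligand signal, basal expression = no-ligand signal vs parental autofluorescence.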

PDE5A-AcGFP fusions = assay: FACS analysis of N-terminal PDE5A mutants (PDE5A-AcGFP fusions), Sildenafil vs vehicle; format: cell-based, mouse; conditions: 24 hours; for Stabilization ratio: Sildenafil 20 μM vs vehicle alone; for Mean Fluorescence Intensity (MFI) Sildenafil (20 μM) / Mean Fluorescence Intensity (MFI) Vehicle control: NIH3T3; for Mean Fluorescence Intensity (MFI) Vehicle control: vehicle alone
Protocol: as §1, §2, §3, §4
as §5, with “PDE5A-AcGFP” for “AcGFP-PDE5A”, “N-terminal” for “C-terminal”, “mutants,” for “mutants”, “(20” for “(10”, “The results are presented in Table 6 where the N terminal PDE5A mutants are denoted as PDE5AN. The” for “The”, “sample.” for “sample. The results are presented in Table 2 where the C terminal PDE5A mutants are denoted as PDE5AC.”

[3] = Sildenafil (10 μM) −, vehicle alone

Substance	Mean Fluorescence intensity ([1]; Sildenafil (10 μM) +)	Mean Fluorescence intensity [1, 3]	Stabilization ratio [1]	Tadalafil concentrations at which stabilization ratios greater than 1 were obtained [2]	Stabilization ratio (PDE5A-AcGFP fusions)	Mean Fluorescence Intensity (MFI) Sildenafil (20 μM) (PDE5A-AcGFP fusions)	Mean Fluorescence Intensity (MFI) Vehicle control (PDE5A-AcGFP fusions)
PDE5AC (#13): AcGFP fused to C-terminal DD 535-860 of PDE5A (Q589R, Y676D, L738H), SEQ ID NO. 24	6284	1076	5.8	–	–	–	–
PDE5AC (#25): AcGFP fused to C-terminal DD 535-860 of PDE5A (Q541R, F559L, Q589R, H678R, I824T), SEQ ID NO. 35	2340	1452	1.6	–	–	–	–
PDE5AC (#28): AcGFP fused to C-terminal DD 535-860 of PDE5A (Q589R, K591E, N609H, D764V), SEQ ID NO. 25	6055	1382	4.4	–	–	–	–
PDE5AC (#43): AcGFP fused to C-terminal DD 535-860 of PDE5A (Q589R, N609H, Y676N, A762S), SEQ ID NO. 29	5518	1017	5.4	–	–	–	–
PDE5AC (#69): AcGFP fused to C-terminal DD 535-860 of PDE5A (Q589R, N636S, D687A, D764N, S815C), SEQ ID NO. 30	6365	1126	5.6	–	–	–	–
PDE5AN (#3): N-terminal DD 535-860 of PDE5A (Q589R, K633E, T712S, K852E, K795E), SEQ ID NO. 66, fused to AcGFP	–	–	–	greater than 0.41 μM	3.97	3335	839
PDE5AN (#53): N-terminal DD 535-860 of PDE5A (E536G, Q589R, C839S), SEQ ID NO. 67, fused to AcGFP	–	–	–	–	2.62	4440	1697
